Measured values reported in patent US20250084036A1, “COMPOUND, ALDEHYDE DEHYDROGENASE 2 ACTIVATOR, PHARMACEUTICAL COMPOSITION, AND THERAPEUTIC AND/OR PROPHYLACTIC DRUG” (Alchemedicine, Inc., priority 2022, published 2025).

Legend:
[1] = target: T1, human recombinant ALDH2 enzyme (Homo sapiens, UniProt P05091); test: Test Example 1-2: ALDH2 activation effect (acetaldehyde oxidation rate, PicoProbe kit); format: biochemical; conditions: ALDH2 1 μg/mL, 60 min measurement
T1 construct: purchased Abcam ab87415
T1 sequence (P05091 18-517): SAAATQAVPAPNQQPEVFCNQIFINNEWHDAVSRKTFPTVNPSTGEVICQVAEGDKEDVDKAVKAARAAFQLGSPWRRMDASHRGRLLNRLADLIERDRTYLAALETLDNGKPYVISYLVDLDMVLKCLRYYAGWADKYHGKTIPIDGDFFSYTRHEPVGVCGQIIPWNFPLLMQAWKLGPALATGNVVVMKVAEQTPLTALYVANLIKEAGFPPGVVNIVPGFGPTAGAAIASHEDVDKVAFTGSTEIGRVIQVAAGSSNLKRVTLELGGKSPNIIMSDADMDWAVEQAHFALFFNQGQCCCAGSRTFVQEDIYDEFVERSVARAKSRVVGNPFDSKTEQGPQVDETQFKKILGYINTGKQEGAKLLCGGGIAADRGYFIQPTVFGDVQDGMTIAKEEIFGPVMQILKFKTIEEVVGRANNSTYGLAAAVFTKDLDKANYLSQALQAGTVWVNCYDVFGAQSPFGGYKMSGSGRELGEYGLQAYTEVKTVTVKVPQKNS
Procedure: (§1) The activation effect of each test compound on the acetaldehyde oxidation rate of ALDH2 was measured with the following method. A test was conducted by using a commercially available PicoProbe™ Aldehyde dehydrogenase Activity Assay Kit (manufactured by Abcam) with reference to an instruction attached to the product under the following conditions. To each well of a 384-well plate, the following (1) to (3) were sequentially added with a pipette: • (1) 10 μL of solution obtained by dissolving and diluting a human recombinant ALDH2 enzyme (manufactured by Abcam, product number: ab87415) with ALDH assay Buffer (final concentration: 1 μg/mL); • (2) 10 μL of 30 μM or 90 μM test compound solution (with 3% DMSO) prepared by using ALDH assay Buffer; and • (3) 10 μL of Reaction mix composed with ratio of 7.3 μL of ALDH assay Buffer, 0.6 μL of PicoProbe, 0.6 μL of Substrate Mix, and 1.5 μL of Acetaldehyde.
(§2) Before addition of (3), incubation was performed at room temperature for 5 minutes. After addition of (3), fluorescence intensity was measured at room temperature every 2.5 minutes over a period of 60 minutes by using an EnVision (manufactured by PerkinElmer Inc.) to determine the oxidation rate. Wavelengths of 535 nm and 587 nm were used for fluorescence intensities of excitation and emission, respectively.

[2] = Test Example 2: Metabolic stability with mouse hepatic microsomes; format: in vitro ADME; conditions: after 30 minutes, 37° C., NADPH; note: tested at 0.99 µM
Procedure: Metabolic stability in mouse hepatic microsomes was evaluated with the following method.
• (1) Mouse hepatic microsomes: 20 mg/mL • (2) Test compound: 1.1 mM DMSO solution • (3) Potassium phosphate buffer solution: 66.7 mM (pH 7.4) • (4) NADPH solution: 10 mM in potassium phosphate buffer solution • (5) Quenching solution: 0.5% formic acid-acetonitrile solution with warfarin as internal standard substance
Into a propylene tube, 971.5 μL of the potassium phosphate buffer solution and 27.5 μL of the mouse hepatic microsomes were put, and suspended. Thereto, 1 μL of a test compound was added, and 180 μL was taken from this mixture and transferred into another tube. The mixture was preincubated at 37° C. for 5 minutes, and 20 μL of the NADPH solution (for the case with an incubation time of 30 minutes) or 20 μL of the potassium phosphate buffer solution (for the case with an incubation time of 0 minutes) was then added thereto. After incubation, 200 μL of the quenching solution was added to terminate the reaction. Subsequently, centrifugation was performed at 3220×g for 20 minutes, and the concentration of the unchanged form of the test compound in 200 μL of the supernatant was measured with LC-MS/MS. On the basis of the peak area obtained for the unchanged form, the residual rate (%) of the unchanged form was calculated as that for the case with an incubation time of 0 minutes was assumed as 100%.

[3] = Test Example 3: Metabolic stability with human hepatic microsomes; format: in vitro ADME; conditions: human hepatic microsomes 0.1 mg protein/mL, 0.1 μmol/L test compound, after 30 minutes, 37° C.
Procedure: For the compounds of Examples 1 to 9, which had been confirmed to have stability in the mouse hepatic microsome test, metabolic stability with human hepatic microsomes was measured. The specific method is as follows. • (1) Fifty microliter-portions were taken from 0.2 μmol/L test compound diluted with β-NADPH solution. • (2) Fifty microliters of 0.2 mg protein/mL human hepatic microsome solution was added to each (except for a sample with a reaction time of 0 minutes). • (3) Incubation was performed with shaking at 37° C. for 30 minutes (concentration in reaction sample: 0.1 μmol/L test compound, 0.1 mg protein/mL human hepatic microsome) • (4) After incubation, 400 μL of methanol was added to terminate the reaction. • (5) To the sample with a reaction time of 0 minutes, 50 μL of 0.2 mg protein/mL hepatic microsome solution was added. • (6) Each of the samples from (4) and (5) was left to stand at −20° C. for 30 minutes or longer, and then centrifuged at 4° C. and 3,000 rpm for approximately 10 minutes. • (7) The supernatant was subjected to measurement with LC/MS/MS, and, on the basis of the peak area obtained for the unchanged form, the residual rate (%) of the unchanged form was calculated as that for the case with an incubation time of 0 minutes was assumed as 100%.

[4] = target: T1, human recombinant ALDH2 enzyme; test: Test Example 1-1: ALDH2 activation effect (acetaldehyde oxidation rate, PicoProbe kit); format: biochemical; conditions: ALDH2 2 μg/mL, 180 min measurement
Procedure: as §1, with “by BioVision Inc.)” for “by Abcam)”, “concentration: 2” for “concentration: 1”, “of […]” for “of 7.3”, “PicoProbe, 0.3” for “PicoProbe, 0.6”
as §2, with “180” for “60”, “EnSight” for “EnVision”

Compound | acetaldehyde oxidation rate (no test compound = 100%) ([1]; test compound 10 μM) [%] | acetaldehyde oxidation rate (no test compound = 100%) ([1]; test compound 30 μM) [%] | Residual rate (%) of unchanged form [2] [%] | Residual rate (%) of unchanged form [3] [%] | acetaldehyde oxidation rate (no test compound = 100%) ([4]; test compound 10 μM) [%] | acetaldehyde oxidation rate (no test compound = 100%) ([4]; test compound 30 μM) [%]
COc1ncc(CNC(=O)c2cc(-c3ncccc3[C@@H](C)O)ccc2F)cc1F (single isomer, unassigned) [Example 4, 2-fluoro-N-((5-fluoro-6-methoxypyridin-3-yl)methyl)-5-(3-(1-hydroxyethyl)pyridin-2-yl)benzamide] | 133 | 155 | 93 | >99 |  | 
COc1ncc(CNC(=O)c2cc(-c3ncccc3[C@@H](C)O)ccc2F)cc1F (single isomer, unassigned) [Example 5, 2-fluoro-N-((5-fluoro-6-methoxypyridin-3-yl)methyl)-5-(3-(1-hydroxyethyl)pyridin-2-yl)benzamide] | 122 | 170 | 95 | 92 |  | 
O=C(NCc1ccc2c(c1)OCO2)c1c(Cl)cccc1Cl [Comparative Example 1, reference compound] | 220 | 275 | <1 |  | 199 | 225
COc1ccc(CNC(=O)c2cc(-c3ncccc3CO)ccc2OCC2CC2)cc1F [Comparative Example 2, reference compound] |  |  | 6 |  |  | 
COCc1ccc(CNC(=O)c2c(Cl)cccc2Cl)cc1F [Comparative Example 3, reference compound] |  |  | 1 |  |  | 
COCc1ccc(CNC(=O)c2c(Cl)cccc2Br)cc1F [Comparative Example 4, reference compound] |  |  | <1 |  |  | 
COCc1ccc(CNC(=O)c2c(F)cccc2Cl)cc1F [Comparative Example 5, reference compound] |  |  | <1 |  |  | 
COCc1ccc(CNC(=O)c2c(F)cccc2F)cc1F [Comparative Example 6, reference compound] |  |  | 1 |  |  | 
COCc1ccc(CNC(=O)c2cc(-c3ncccc3CO)ccc2F)cn1 [Example 1, 2-Fluoro-5-(3-(hydroxymethyl)pyridin-2-yl)-N-((6-(methoxymethyl)pyridin-3-yl)methyl)benzamide] |  |  | 91 | 96 | 123 | 130
COc1ccc(CNC(=O)c2cc(-c3ncccc3CO)ccc2F)cn1 [Example 2, 2-Fluoro-5-(3-(hydroxymethyl)pyridin-2-yl)-N-((6-methoxypyridin-3-yl)methyl)benzamide] |  |  | 89 | >99 | 150 | 180
O=C(NCc1ccc(OC(F)F)nc1)c1cc(-c2ncccc2CO)ccc1F [Example 6, N-((6-(Difluoromethoxy)pyridin-3-yl)methyl)-2-fluoro-5-(3-(hydroxymethyl)pyridin-2-yl)benzamide] | 125 | 139 | >99 | 47 |  | 
CCOc1ncc(CNC(=O)c2cc(-c3ncccc3CO)ccc2F)cc1F [Example 7, N-((6-Ethoxy-5-fluoropyridin-3-yl)methyl)-2-fluoro-5-(3-(hydroxymethyl)pyridin-2-yl)benzamide] | 331 | 415 | 96 | 89 |  | 
CC(C)Oc1ncc(CNC(=O)c2cc(-c3ncccc3CO)ccc2F)cc1F [Example 8, 2-Fluoro-N-((5-fluoro-6-isopropoxypyridin-3-yl)methyl)-5-(3-(hydroxymethyl)pyridin-2-yl)benzamide] | 154 | 224 | 90 | >99 |  | 
O=C(NCc1cnc(OC2CC2)c(F)c1)c1cc(-c2ncccc2CO)ccc1F [Example 9, N-((6-Cyclopropoxy-5-fluoropyridin-3-yl)methyl)-2-fluoro-5-(3-(hydroxymethyl)pyridin-2-yl)benzamide] | 182 | 283 | 92 | 93 |  | 
